The nature of series [1]: Caco-2 permeability of ADC payload. The series is classed as in vitro ADME. The note with it: human; for Papp B→A at 2 h, 10 NM: basolateral to apical, read-out: Permeability Mean Caco-2 B-A Perm (10e−G cm/s). (Caco-2 monolayers are a common model of the intestinal barrier.)
Procedure: Integrity of cell monolayer was confirmed by TEER (transepithelial electrical resistance) and Lucifer yellow. Payloads were spiked in duplicate at 10 NM, separately, on both sides of the cell monolayer. Permeability rates from the apical to basolateral (A-B) direction and the basolateral to apical (B-A) direction were determined by sampling aliquots from both chambers immediately after treatment (t=0) and following incubation for 2 hours. Samples were protein precipitated with organic solvent containing internal standard and analyzed by LC-MS/MS (SCIEX; API 5500). The area ratio responses of payload/internal standard over time in both directions were used to generate permeability (cm/sec) values.
Series [2] relates to THP1.1. As to the kind of experiment: Payload cell potency and lethality CTGlo 72 h, THP1.1. Format: cell-based. To be noted: unconjugated payload; for GI50: payload cell potency and lethality.
A short description of series [3]: Chemical stability of ADC payload, pH 5.5 buffer. Format: physicochemical. To be noted: for half-life at 20 μM: McIlvaine (citrate-phosphate) buffer, unconjugated payload, Citrate-Phosphate buffer pH 5.5, 37° C., read-out: Stability Mean Stability t1/2 pH5.5 (converted); for pH 5.5 Stability (t1/2, 37 C.): pH 5.5, 37 C., corresponding payload. The text has this: (Eppendorf ThermoMixer). […] Time 0 was set to 100.

Series [4] concerns PC3 cells. As to the kind of experiment: Cell viability CellTiter-Glo, PC3 (EPHA2-expressing). The series is classed as cell-based. (In general: Cellular ATP, detected with luciferase, serves as a proxy for viable cell number.)
Procedure: (§1) HCC1954 (American Type Culture Collection (ATCC)) breast ductal carcinoma cells were plated at 2000 cells/well in flat bottom 96-well tissue culture plates (Corning) in a total volume of 90 μL tissue culture medium supplemented with 10% fetal bovine serum (ThermoFisher Scientific). Cells were treated with a 3-fold serial dilution of compound from 200 nM to 0.03 nM. Each concentration was tested in triplicate. At the time of treatment, a plate of untreated cells was evaluated using CellTiter-Glo®2.0 Luminescent Cell Viability Assay according to the manufacturers recommendations (Promega; #G9241). CellTiter-Glo® 2.0 reagent was added to the medium, incubated, and assayed on an EnVision Multilabel Reader (PerkinElmer). Values represent time zero (T0). […] Percentage growth inhibition was calculated as: [(T144−T0)/(C−T0)]×100 for concentrations for which T144>/=T0 or [(T144−T0)/T0]×100 for concentrations for which T144<T0. The dose response curve plots were generated using Prism 7 (Graphpad) and fit using nonlinear regression analysis and the log(inhibitor) versus response-variable slope (four parameters).
(§2) Anti-CD138 ADCs were tested in the CD138-expressing MOLP8 multiple myeloma cell line. Similarly, anti-EPHA2 ADCs were tested in the EPHA2-expressing PC3 prostate cancer cell line.
The subject of series [5] is MOLP8 cells. Description: Cell viability CellTiter-Glo, MOLP8 (CD138-expressing). The series is classed as cell-based.
Procedure: as §1, §2
Setting [6] is: Caco-2, unconjugated payload, apical to basolateral, 2 hours, read-out: Permeability Mean Caco-2 A-B Perm (10e−6 cm/s).
The mark [7] stands for this setting: Caco-2, unconjugated payload, 2 hours.
Setting [8] is: Caco-2, A-B, corresponding payload (Table 26), read-out: Permeability Caco-2 A-B (10e−6 cm/s).
The mark [9] stands for this setting: anti-CD138 ADC, read-out: SMLA GI50.

Where two headings read alike, the source gives them in different places.

For `CC[C@H](O)[C@@H](C)[C@H]1O[C@@H]1C[C@@](C)(O)/C=C/C=C(\C)[C@H]1OC(=O)C[C@H](O)CC[C@@](C)(O)[C@@H](OC(=O)N2CCN(C3CCCCCC3)CC2)/C=C/[C@@H]1C` [D11, E7107], the Papp A→B at 2 h, 10 NM in series [1] (setting [6]) came to 0.87 ×10⁻⁶ cm/s. Also, in series [1] (setting [7]), the Papp B→A at 2 h, 10 NM was 10.6 ×10⁻⁶ cm/s. Also, the “CTGlo-AT S Mean Min-Response % 72 h THP1.1” value in series [2] is on record as −100.481%. Further, the half-life at 20 μM in series [3] is 90 h.
As to `CC[C@H](O)[C@@H](C)[C@H]1O[C@@H]1C[C@H](C)/C=C/C=C(\C)[C@H]1OC(=O)C[C@H](O)CC[C@@](C)(OC(=O)N2CCNCC2)[C@@H](OC(C)=O)/C=C/[C@@H]1C` [D13], in series [1] (setting [6]), the Papp A→B at 2 h, 10 NM is 0.9 ×10⁻⁶ cm/s. In addition, in series [1] (setting [7]), the Papp B→A at 2 h, 10 NM came to 17.2 ×10⁻⁶ cm/s. In addition, in series [2], the “CTGlo-AT S Mean Min-Response % 72 h THP1.1” value is given as −99.941% and the GI50 is 0.892 nM. Besides, the half-life at 20 μM in series [3] is below 24 h.
As to `C/C(=C\c1cc(F)cc(N2CCN(C(=O)Cn3cccn3)CC2)c1)[C@H]1OC(=O)C[C@H](O)CC[C@H](C)[C@@H](OC(=O)N2CCNCC2)/C=C/[C@@H]1C` [D16], the Papp A→B at 2 h, 10 NM in series [1] (setting [8]) stood at 0.72 ×10⁻⁶ cm/s. For the same molecule, the Papp A→B at 2 h, 10 NM in series [1] (setting [6]) is 0.72 ×10⁻⁶ cm/s. The Papp B→A at 2 h, 10 NM in series [1] (setting [7]) stood at 23.3 ×10⁻⁶ cm/s. In addition, in series [2], the “CTGlo-AT S Mean Min-Response % 72 h THP1.1” value is −99.681% and the GI50 came out at 2.975 nM. Also, in series [3], the half-life at 20 μM was above 168 h and the “pH 5.5 Stability (t1/2, 37 C.)” value was determined as 7.
As to `CC[C@H](O)[C@@H](C)[C@H]1O[C@@H]1C[C@H](C)/C=C/C=C(\C)[C@H]1OC(=O)C[C@H](O)CC[C@@](C)(OC)[C@@H](OC(=O)N2CCN(C)CC2)/C=C/[C@@H]1C` [D19, (2S,3S,6S,7R,10R,E)-10-hydroxy-2-((S,2E,4E)-7-((2R,3R)-3-((2R,3S)-3-hydroxypentan-2-yl)oxiran-2-yl)-6-methylhepta-2,4-dien-2-yl)-7-methoxy-3,7-dimethyl-12-oxooxacyclododec-4-en-6-yl 4-methylpiperazine-1-carboxylate], the Papp A→B at 2 h, 10 NM in series [1] (setting [8]) came out at 16 ×10⁻⁶ cm/s. Moreover, the GI50 in series [4] (Homo sapiens, PC-3, free payload of the ADC) came to 1.41 nM; in series [5] (Homo sapiens, MOLP-8, unconjugated payload of the ADC in the row, read-out: Payload GI50) it was 0.84 nM. In addition, the “Payload LD50” value in series [4] (free payload of the ADC) is above 400 nM. In addition, in series [4] (free payload of the ADC), the “Payload Rmin (%)” value is reported as −29.33%. Further, the “pH 5.5 Stability (t1/2, 37 C.)” value in series [3] turned out to be 0.8.
As to `CC[C@H](O)[C@@H](C)[C@H]1O[C@@H]1C[C@@](C)(O)/C=C/C=C(\C)[C@H]1OC(=O)C[C@H](O)CC[C@@](C)(OC)[C@@H](OC(=O)N(C)CCNC)/C=C/[C@@H]1C` [D20, (2S,3S,6S,7R,10R,E)-10-hydroxy-2-((R,2E,4E)-6-hydroxy-7-((2R,3R)-3-((2R,3S)-3-hydroxypentan-2-yl)oxiran-2-yl)-6-methylhepta-2,4-dien-2-yl)-7-methoxy-3,7-dimethyl-12-oxooxacyclododec-4-en-6-yl methyl(2-(methylamino)ethyl)carbamate], in series [1] (setting [6]), the Papp A→B at 2 h, 10 NM turned out to be 0.16 ×10⁻⁶ cm/s. In addition, the Papp B→A at 2 h, 10 NM in series [1] (setting [7]) amounted to 0.38 ×10⁻⁶ cm/s. In series [2], the “CTGlo-AT S Mean Min-Response % 72 h THP1.1” value is −100.664% and the GI50 is 28.336 nM. Also, the half-life at 20 μM in series [3] was above 168 h.
`CC[C@H](O)[C@@H](C)[C@H]1O[C@@H]1C[C@@](C)(O)/C=C/C=C(\C)[C@H]1OC(=O)C[C@H](O)CC[C@@](C)(OC)[C@@H](OC(=O)N2CCNC(CCC(=O)O)C2)/C=C/[C@@H]1C` (stereo partly drawn) [D22, N-ethyl-N-isopropylpropan-3-(4-((((2S,3S,6S,7R,10R,E)-10-hydroxy-2-((R,2E,4E)-6-hydroxy-7-((2R,3R)-3-((2R,3S)-3-hydroxypentan-2-yl)oxiran-2-yl)-6-methylhepta-2,4-dien-2-yl)-7-methoxy-3,7-dimethyl-12-oxooxacyclododec-4-en-6-yl)oxy)carbonyl)piperazin-2-yl)propanoic acid]: the Papp A→B at 2 h, 10 NM in series [1] (setting [6]) was 0.14 ×10⁻⁶ cm/s. The Papp B→A at 2 h, 10 NM in series [1] (setting [7]) stood at 0.16 ×10⁻⁶ cm/s. Also, in series [2], the “CTGlo-AT S Mean Min-Response % 72 h THP1.1” value was −78.119%.
As to `C/C(=C\c1cc(F)cc(N2CCN(C(=O)Cn3cccn3)CC2)c1)[C@H]1OC(=O)C[C@H](O)CC[C@H](C)[C@@H](OC(=O)N2CCN(C)CC2)/C=C/[C@@H]1C` [D26], the Papp A→B at 2 h, 10 NM in series [1] (setting [6]) was found to be 16 ×10⁻⁶ cm/s. Also, the Papp B→A at 2 h, 10 NM in series [1] (setting [7]) stood at 41.1 ×10⁻⁶ cm/s. Further, the “CTGlo-AT S Mean Min-Response % 72 h THP1.1” value in series [2] is −99.401%. Further, in series [3], the half-life at 20 μM was above 168 h.
For the molecule `C/C(=C\c1cc(F)cc(N2CCN(CC(=O)O)CC2)c1)[C@H]1OC(=O)C[C@H](O)CC[C@H](C)[C@@H](OC(=O)N2CCNCC2)/C=C/[C@@H]1C` [D33, 2-(4-(3-fluoro-5-((E)-2-((2S,3S,6R,7S,10R,E)-10-hydroxy-3,7-dimethyl-12-oxo-6-((piperazine-1-carbonyl)oxy)oxacyclododec-4-en-2-yl)prop-1-en-1-yl)phenyl)piperazin-1-yl)acetic acid], the Papp A→B at 2 h, 10 NM in series [1] (setting [6]) was determined as 0.13 ×10⁻⁶ cm/s. In addition, the Papp B→A at 2 h, 10 NM in series [1] (setting [7]) came out at 0.53 ×10⁻⁶ cm/s. Also, in series [2], the “CTGlo-AT S Mean Min-Response % 72 h THP1.1” value is reported as −53.128% and the GI50 is 195.752 nM.
With `C/C(=C\c1cccc(S(=O)(=O)N2CCCC2)c1)[C@H]1OC(=O)C[C@H](O)CC[C@H](C)[C@@H](OC(=O)N2CCN(C)CC2)/C=C/[C@@H]1C` [D34], the Papp A→B at 2 h, 10 NM in series [1] (setting [8]) came out at 26 ×10⁻⁶ cm/s. In series [3], the “pH 5.5 Stability (t1/2, 37 C.)” value came to 7.

B1: AB205-ADL12-D2 (conjugate)
heavy: QVQLQQSGSELMMPGASVKISCKATGYTFSNYWIQRPGHGLEWIGEILPGTGRTIYNEKFKGKATFTADISSNTVQMQLSSLTSEDSAVYYCARRDYYGNFYYAMDYWGQGTSVTVSSAKTTPPSVYPLAPGSAAQTNSMVTLGCLVKGYFPEPVTVTWNSGSLSSGVHTFPAVLQSDLYTLSSSVTVPSSTWPSETVTCNVAHPASSTKVDKKIVPRDCGCKPCICTVPEVSSVFIFPPKPKDVLTITLTPKVTCVVVDISKDDPEVQFSWFVDDVEVHTAQTQPREEQFNSTFRSVSELPIMHQDWLNGKEFKCRVNSAAFPAPIEKTISKTKGRPKAPQVYTIPPPKEQMAKDKVSLTCMITDFFPEDITVEWQWNGQPAENYKNTQPIMDTDGSYFVYSKLNVQKSNWEAGNTFTCSVLHEGLHNHHTEKSLSHSPG
light: DIQMTQSTSSLSASLGDRVTISCSASQGINNYLNWYQQKPDGTVELLIYYTSTLQSGVPSRFSGSGSGTDYSLTISNLEPEDIGTYYCQQYSKLPRTFGGGTKLEIKRADAAPTVSIFPPSSEQLTSGGASVVCFLNNFYPKDINVKWKIDGSERQNGVLNSWTDQDSKDSTYSMSSTLTLTKDEYERHNSYTCEATHKTSTSPIVKSFNRNEC
Take B1: in series [5] (anti-CD138 ADC), the “SMLA LD50” value was above 400 nM and the “SMLA Rmin (%)” value is −53.125%. Further, the GI50 in series [5] (setting [9]) was below 0.061 nM.

B2: AB205-ADL5-D19 (conjugate)
heavy: B1 heavy
light: B1 light
As to B2, in series [5] (anti-CD138 ADC), the “SMLA LD50” value was above 400 nM and the “SMLA Rmin (%)” value is on record as −46.23%. The GI50 in series [5] (setting [9]) was below 0.061 nM.

B3: AB205-ADL10-D1 (conjugate)
heavy: B1 heavy
light: B1 light
B3: in series [5] (anti-CD138 ADC), the “SMLA LD50” value is above 400 nM and the “SMLA Rmin (%)” value is reported as −25.099%.

B4: AB205-ADL1-D14 (conjugate)
heavy: B1 heavy
light: B1 light
Regarding B4, in series [5] (anti-CD138 ADC), the “SMLA LD50” value is given as above 400 nM and the “SMLA Rmin (%)” value was −74.008%. Moreover, the GI50 in series [5] (setting [9]) is below 0.061 nM.

B5: AB205-ADL5-D15 (conjugate)
heavy: B1 heavy
light: B1 light
In the case of B5, in series [5] (anti-CD138 ADC), the “SMLA LD50” value was above 400 nM and the “SMLA Rmin (%)” value stood at 2.419%. In series [5] (setting [9]), the GI50 was found to be 0.258 nM.

B6: AB205-ADL5-D25 (conjugate)
heavy: B1 heavy
light: B1 light
With B6, in series [5] (anti-CD138 ADC), the “SMLA LD50” value was determined as 11.669 nM and the “SMLA Rmin (%)” value is −76.736%. In addition, the GI50 in series [5] (setting [9]) was below 0.061 nM.

B7: AB205-ADL1-D1 (conjugate)
heavy: B1 heavy
light: B1 light
For B7, in series [5] (anti-CD138 ADC), the “SMLA LD50” value is 0.656 nM and the “SMLA Rmin (%)” value is −100.099%. The GI50 in series [5] (setting [9]) is below 0.061 nM.

B8: AB205-ADL1-D4 (conjugate)
heavy: B1 heavy
light: B1 light
With B8, in series [5] (anti-CD138 ADC), the “SMLA LD50” value is recorded as 0.535 nM and the “SMLA Rmin (%)” value is reported as −99.306%. For the same molecule, the GI50 in series [5] (setting [9]) is below 0.061 nM.

Broadly, the GI50 is the concentration at which growth is held to half of that of the control.

The values above are taken from patent US11945807B2, “Splicing modulator antibody-drug conjugates and methods of use” (EISAI R&D MANAGEMENT CO., LTD., priority 2018, dated 2024).
